The results in this text go back to patent US20090197279A1, “MICROTUBULE SYNTHESIS AS A BIOMARKER” (KINEMED, INC., priority 2005, published 2009).

SMILES strings stand for the structures.

Series [1] relates to hippocampal tubulin dimers and tau-associated, tau-nonassociated (MAP2/STOP) and cold-stable microtubules. As to the kind of experiment: 2H label incorporation into hippocampal tubulin dimers and microtubule fractions after ICVC infusion (2H2O labeling, GC/MS). The class given is in vivo, mouse. The method, then:
In (A) and (B), mice received ICVC infusions of 6 μl water alone or containing 0.48 nmol glutamate (80 μM in the infusate), or glutamate plus 0.66 pmol Rp-cAMP (110 nM in the infusate). Animals were then labeled with ^2H2O for 8 hours (A) or 24 hours (B). At sacrifice, the hippocampal post-nuclear supernatant was fractionated as show in FIG. 5A; a separate aliquot was used for isolation of cold stable (CS) MTs (FIG. 5D). Glutamate injection stimulated label incorporation into new MAP2/STOP-MTs at 8 and 24 hours, and CS MTs at 24 hours; both were blocked by Rp-cAMP. In order to correct the effects of pharmacologic intervention on MT dynamics for the confounding changes in tubulin synthesis, the numbers above each bar express ^2H label incorporation into MT as a percentage of ^2H labeling in the corresponding tubulin dimer fractions. (C) Dose dependence of glutamate effects. ^2H2O labeling was initiated at time zero, 6 μl ICVC infusions with the indicated concentrations of glutamate were performed at 24 hours, and labeling was continued until sacrifice at 48 hours (24 hours post glutamate infusion). Hippocampal MTs were fractionated into tau-associated, MAP2-associated, and non-associated (STOP-associated) MT fractions, as in FIG. 5A. In all experiments, bars represent % new tubulin (mean±SD, n=3).
Tubulin was purified using minor modifications of protocols described previously (Fanara, P., Oback, B., Ashman, K., Podtelejnikov, A., Brandt, R. Identification of MINUS, a small polypeptide that functions as a microtubule nucleation suppressor. EMBO J. 18, 565-577 (1999); Fanara, P. et al. In vivo measurement of microtubule dynamics using stable isotope labeling with heavy water. Effect of taxanes. J. Biol. Chem. 279, 49940-49947 (2004). Briefly, cultured neurons were gently scraped off culture plates, washed in phosphate-buffered saline (PBS), and homogenized in microtubule-stabilizing buffer. For purification ex vivo, mice were anesthetized with isoflurane and euthanized by cervical dislocation. Brains were rapidly removed and washed in microtubule-stabilizing buffer (MSB); hippocampi were dissected and gently homogenized in MSB. To separate cytosolic tubulin dimers from microtubule polymers, post-nuclear supernatants were centrifuged at 190,000×g at 20° C. for 35 min. The supernatant or non-microtubule fraction (containing the soluble dimeric tubulin) was separated from the pellet or microtubule fraction (containing polymeric tubulin), quick-frozen and stored at −20° C. Microtubule pellets were further fractionated by sequential immunoaffinity chromatography steps (FIG. 3). In order to isolate tau-associated microtubules, TAU5 antibody was covalently coupled to epoxy-activated Sepharose beads (Amersham Pharmacia Biotech) at a concentration of 0.25 mg/ml. Approximately 0.2 mg of the microtubule pellet was incubated with TAU-5 beads in 0.5 ml MSB for 1 hour at room temperature. Unbound material was removed, the beads were washed three times in 0.5 ml of MSB, and bound material was eluted in 0.5 ml MSB containing 1M NaCl. In some experiments, MAP2-associated microtubules were captured from the TAU5-unbound material by immunoaffinity chromatography on epoxy-activated Sepharose beads coupled to MAP2 antibody (0.5 mg antibody per ml beads) using the same protocol. The relative abundance of tubulin in each preparation (Tubulin dimers and TAU5-bound, MAP2-bound, and unbound microtubule fractions) was quantified by Western blot, and tubulin from these fractions was further purified by ion exchange and size exclusion chromatography, as previously described (Fanara, P. et al. In vivo measurement of microtubule dynamics using stable isotope labeling with heavy water. Effect of taxanes. J. Biol. Chem. 279, 49940-49947 (2004)). […]

Series [2] deals with total hippocampal proteins. Briefly: Fractional synthesis of total hippocampal proteins. The class given is in vivo, mouse. To be noted: coadministration of 0.66 pmol Rp-cAMP with glutamate. The method, then:
FIG. 7 depicts the effects of ICV glutamate on the relative amounts of MT subpopulations and on total protein synthesis in murine hippocampus. (A, B) Tubulin abundances are measured by Western blot analysis for α-tubulin at 8 hour (A) and 24 hours (B). Subpopulations were total extract (total), free tubulin dimers, tau-associated MTs, tau-nonassociated (MAP2/STOP) MTs and cold stable (CS) MTs. Mock and glutamate infused ICVC mice are shown (cf. FIGS. 6A and B). […] (C) Fractional synthesis of total hippocampal proteins. Glutamate increased protein synthesis versus mock-treated animals (*p<0.01); this effect was blocked by coadministration with 0.66 pmol of Rp-cAMP (**p<0.02).
This hypothesis had not previously been tested in the living brain, however. To test this hypothesis, we used the methods of the invention disclosed herein. Mice were infused with 6 μl water containing 0.48 nmol glutamate (80 μM in the infusate), or glutamate plus 0.66 pmol Rp-cAMP (110 nM in the infusate). Label incorporation into hippocampal tubulin dimers and into microtubule polymers was then quantified after administration of ^2H2O for 8 hours or 24 hours (FIGS. 7A and 7B). […] These findings further strengthen the previously reported correlation between hippocampus glutamate NMDA receptor-dependent learning (long-term potentiation) and protein synthesis (Kandel, E. R. The molecular biology of memory storage: a dialogue between genes and synapses. Science 294, 1030-1038 (2001)). By the same criterion, the glutamate-induced program of changes in hippocampal microtubule dynamics shown in FIGS. 6 and 7 also alters hippocampal total protein synthesis in vivo (data not show), further supporting the capacity of the invention disclosed herein to generate a biochemical record of basic neuroanatomic connectivity in the brain and thereby to reveal the dynamics of synaptogenesis in vivo.

Series [3] is described as follows: Toxicity of maintained body water 2H2O enrichment. The class given is in vivo. Particulars: 1-10% of total body water labeled, maintained for weeks or months; >100 human subjects. The text has this:
Relatively high body water enrichments of ^2H2O (e.g., 1-10% of the total body water is labeled) may be achieved relatively inexpensively using the techniques of the invention. […] This finding in a large number of human subjects (>100 people) is contrary to previous concerns about vestibular toxicities at high doses of ^2H2O. One of the Applicants has discovered that as long as rapid changes in body water enrichment are prevented (e.g., by initial administration in small, divided doses), high body water enrichments of ^2H2O can be maintained with no toxicities. For example, the low expense of commercially available ^2H2O allows long-term maintenance of enrichments in the 1-5% range at relatively low expense (e.g., calculations reveal a lower cost for 2 months labeling at 2% ^2H2O enrichment, and thus 7-8% enrichment in the alanine precursor pool, than for 12 hours labeling of ^2H-leucine at 10% free leucine enrichment, and thus 7-8% enrichment in leucine precursor pool for that period).

For the compound `Nc1ncnc2c1ncn2[C@@H]1O[C@@H]2COP(O)(=S)O[C@H]2[C@H]1O` (single isomer, unassigned) [Rp-cAMP, adenosine-3′,5′-monophosphorothioate, Rp-isomer], the “glutamate-stimulated label incorporation into new MAP2/STOP-MTs” value in series [1] (0.48 nmol glutamate plus 0.66 pmol Rp-cAMP ICVC, 8 and 24 hours) was “blocked”. The “glutamate-stimulated label incorporation into CS MTs” value in series [1] (0.48 nmol glutamate plus 0.66 pmol Rp-cAMP ICVC, 24 hours) is reported as “blocked”. Moreover, the “fractional synthesis of tubulin dimers and microtubules” value in series [1] (glutamate plus 0.66 pmol Rp-cAMP, 24 hours) was “significantly blocked”. The “glutamate-induced increase in total hippocampal protein synthesis” value in series [2] is given as “blocked”.

For the compound `[2H]O[2H]` [^2H2O], the toxicity result in series [3] is “without any evidence of toxicity”.
